Source: patent US11591326B2, “Inhibitors of protein arginine methyltransferase 5 (PRMT5), pharmaceutical products thereof, and methods thereof” (PHARMABLOCK SCIENCES (NANJING), INC., priority 2018, dated 2023)
Like-named read-outs stand apart in the source and are kept apart here.

Key:
Format in all cases: cell-based
[1] = tested on: Mantle Cell Lymphoma Z-138 cell; test: Cell proliferation inhibition, Z-138 (CCK8); details: Homo sapiens, Z-138, 96 h, Z-138, incubated 4 days
Text: (§1) Materials and Cell Lines: Z-138, U251, and MIA PaCa2 cells were purchased from ATCC (American Type Culture Collection, Manassas, Va.) and Chinese Academy of Science (Shanghai, China). Iscove's Modified Dulbecco's Medium (IMDM), Dulbecco's Modified Eagle Medium (DMEM), penicillin-streptomycin, heat inactivated fetal bovine serum (FBS), and horse serum was purchased from ThermoFisher, Waltham, Mass., USA. Corning 96- and 384-well cell culture plates were purchased from ThermoFisher, Waltham, Mass., USA. Cell-Titer Glo® was purchased from Promega Corporation, Madison, Wis., USA.
In order to evaluate the inhibitory ability of compounds synthesized on the proliferation of the Mantle Cell Lymphoma Z-138 cell, exponentially growing cells were seeded in the media of IMDM with 10% horse serum and 1% penicillin-streptomycin at a concentration of 30000 cells/ml in a 96-well plate with 100 ul per well and incubated overnight at 37° C., 5% CO2 incubator. Compounds were prepared as 10-point, 3-fold serial dilutions in DMSO, beginning at 6 mM. 1 μl of DMSO solutions from the compound stock plates were added to 99 ul of cell culture media (final top concentration of compound in the assay was 30 uM and the final concentration of DMSO was 0.5%). 100 μL of compound solutions in media were added to each well of Z-138 cell plates. After adding compound solutions, assay plates were incubated for 4 days at 37° C., 5% CO2. Cell viability was measured using the Cell Counting Kit-8 (CCK8) obtained from the Beyotime Biotehnology, Shanghai, China. 20 ul of CCK8 reagent was added to each well of the Z-138 assay plate which was incubated at 37° C. for 2 hours. O.D. at 450 nm was read with the FlexStation 3 microplate reader (Molecular Devices, Sunnyvale, Calif. 94089 USA). The concentrations of compounds inhibiting cell viability by 50% (IC50 values) were determined using a sigmoidal dose-response model (variable slopes, four parameters) in Prism 7 (La Jolla, Calif.).

[2] = tested on: Pancreatic Carcinoma MIA PaCa-2 cell; test: Cell proliferation inhibition, MIA PaCa-2 (CellTiter-Glo); details: Homo sapiens, MIA PaCa-2, incubated for 12 days (read after 8 or 12 days), read-out: IC50 (μM) MIA PaCa2
Text: as §1
In order to evaluate the inhibitory ability of compounds synthesized on the proliferation of the Pancreatic Carcinoma MIA PaCa-2 cell, exponentially growing cells were seeded in the culture media of DMEM with 10% FBS, 2.5% horse serum, 1 mM of Sodium Pyruvate and 1% penicillin-streptomycin at a concentration of 2500 cells/ml in a 384-well plate with 20 ul per well and incubated overnight at 37° C., 5% CO2 incubator. Compounds were prepared as 10-point, 3-fold serial dilutions in DMSO, beginning at 6 mM. 1 μl of DMSO solutions from the compound stock plates were added to 99 ul of cell media (final top concentration of compound in the assay was 30 uM and the final concentration of DMSO was 0.5%). 20 μL of compound solutions in media were added to each well of MIA PaCa-2 cell plates. After adding compound solutions, assay plates were incubated for 12 days at 37° C., 5% CO2. During this incubation period, cell media was changed every 4 days. After removing old media from cell plates, 40 ul of media with testing compounds dissolved, which were prepared by adding 1 ul of compound DMSO serial solutions to 199 ul of cell media, were added to the assay plates with the same layout as they were initially prepared. After 8 or 12 days, cell viability was measured using the CellTiter-Glo assay kit from Promega (Madison, Wis., USA) by quantitating the ATP present in the cell cultures. 20 μL of CellTiter-Glo reagent was added to each well of the cell plates. Luminescence was read after 10 minute of incubation with the Envision multiple plate reader from PerkinElmer (Waltham, Mass., USA). The concentrations of compounds inhibiting cell viability by 50% (IC50 values) were determined using a sigmoidal dose-response model (variable slopes, four parameters) in Prism 7 (La Jolla, Calif., USA).

[3] = tested on: MCF-7; test: Breast cancer panel proliferation inhibition, MCF-7; details: Homo sapiens
Experimental: Inhibitory ability of compounds synthesized on the proliferation of three panels of cancer cell lines, including 5 breast cancer, 6 liver cancer, and 3 lung cancer cell lines were evaluated. Exponentially growing cells were seeded in the media of choice at various cell densities in 384-well plates with 20 ul per well and incubated overnight at 37° C., 5% CO2 incubator. Compounds were prepared as 10-point, 3-fold serial dilutions in DMSO, beginning at 6 mM. 1 μl of DMSO solutions from the compound stock plates were added to 99 ul of cell media (final top concentration of compound in the assay was 30 uM and the final concentration of DMSO was 0.5%). 20 μL of compound solutions in media were added to each well of plates with cells seeded. After adding compound solutions, assay plates were incubated for 8 and 12 days, respectively, at 37° C., 5% CO2. During this incubation period, cell media was changed every 4 days. After removing old media from cell plates, 40 ul of media with testing compounds dissolved, which were prepared by adding 1 ul of compound DMSO serial solutions to 199 ul of cell media, were added to the assay plates with the same layout as they were initially prepared. After 8 or 12 days, cell viability was measured using the CellTiter-Glo assay kit from Promega (Madison, Wis., USA) by quantitating the ATP present in the cell cultures. 20 μL of CellTiter-Glo reagent was added to each well of the cell plates. Luminescence was read after 10 minute of incubation with the Envision multiple plate reader from PerkinElmer (Waltham, Mass., USA). The concentrations of compounds inhibiting cell viability by 50% (IC50 values) were determined using a sigmoidal dose-response model (variable slopes, four parameters) in Prism 7 (La Jolla, Calif., USA).

[4] = MCF7, 192 h, MCF-7, 8 days, read-out: IC50 (μM) 8 days
[5] = MCF7, 288 h, MCF-7, 12 days, read-out: IC50 (μM) 12 days

| SMILES | IC50 [1] [µM] | IC50 [2] [µM] | IC50 [3, 4] [µM] | IC50 [3, 5] [µM] |
| --- | --- | --- | --- | --- |
| CC(=O)N1CCC(Nc2ccc3c(c2)C(=O)N(C[C@H](O)CN2CCc4ccccc4C2)CC3)CC1 [Compound 24a, (R)-7-((1-acetylpiperidin-4-yl)amino)-2-(3-(3,4-dihydroisoquinolin-2(1H)-yl)-2-hydroxypropyl)-3,4-dihydroisoquinolin-1(2H)-one] | 0.014 | 0.13 | 0.016 | 0.026 |
| CC(=O)N1CCC(Nc2ccc3c(c2)C(=O)N(C[C@H](O)CN2CCc4ccccc4C2)CCO3)CC1 [Compound 52a, (R)-7-((1-acetylpiperidin-4-yl)amino)-4-(3-(3,4-dihydroisoquinolin-2(1H)-yl)-2-hydroxypropyl)-3,4-dihydrobenzo[f][1,4]oxazepin-5(2H)-one] | 0.014 | 0.114 | 0.025 | 0.021 |
| CC(=O)N1CCC(Nc2cc(C(=O)NC[C@H](O)CN3CCc4ccccc4C3)ncn2)CC1 [Compound C3, reference compound] | 0.07 | 0.15 |  | 0.029 |
